Results reported in patent US11047847B2, “Methods and apparatus for modeling cancer metastasis in vitro” (Wake Forest University Health Sciences, priority 2015, dated 2021).
Entries after “also recorded” stand apart in the source; their conditions may differ.

Legend:
[1] = test system: HT29 organoids (BRAFMT); assay: MTS assay of mitochondrial metabolism in CRC organoids in microfluidic devices; type: cell-based; conditions: 48-hour treatment
Description: (§1) Precision medicine—identifying treatments for patients based on their tumor genetic profiles—has gained significant traction. […] In a non-limiting example, colorectal cancer (CRC) organoids were created by encapsulating CRC cells (Caco2 and SW480—WT; HCT116—KRASMT; and HT29—BRAFMT) in hyaluronic acid and gelatin hydrogels in microfluidic devices. Each type of CRC organoid was then subjected to a panel of clinical CRC drugs: 5-FU or oxaliplatin (1st line drugs effective in WT tumors), Tramatinib (an EGFR pathway drug effective in KRASMT tumors), and sorafenib or regorafenib (EGFR pathway drugs effective in BRAFMT tumors). Following 48-hour treatments, organoids were assessed for mitochondrial metabolism by MTS assays. There appeared to be clear differences in drug responsiveness that correlated with EGFR genetic states.

[2] = test system: HCT116 organoids (KRASMT); assay: as above; type: cell-based, human; conditions: 48-hour treatment
Description: as §1

[3] = test system: Caco2 organoids (WT); assay: as above; type: cell-based; conditions: 48-hour treatment
Description: as §1

[4] = test system: SW480 organoids (WT); assay: as above; type: cell-based; conditions: 48-hour treatment
Description: as §1

[5] = test system: HCT-116 cells; assay: Drug treatment and assessment of migration, multi-zone tumor organoid migration model (soft tumor, stiff tissue); type: cell-based, human; conditions: 50 μM Marimastat in DMEM vs no drug control
Procedure: To assess the influence of the physical tumor microenvironment parameters on tumor cell migration, a variation of the organoids described above were […]. Instead of encapsulating homogenously mixed cells throughout the hydrogel, 3-D organoid volumes were formed first, after which a volume of 5 μL HCT-116 cells in hydrogel precursor solution was pipetted into the center of the organoid space and polymerized in place by a 1 second exposure to UV light. […] Organoid and tumor zone elastic moduli were modulated by swapping of the linear PEGDA crosslinker molecule (3.4 kDa MW) with a 4-arm PEG-acrylate molecule (10 kDa MW, Creative PEGWorks, Winston-Salem, N.C.) or 8-arm PEG-acrylate crosslinker molecule (10 kDa MW, Creative PEGWorks) to generate stiffer hydrogels. […] Fluorescent and brightfield overlay images were captured on day 3, day 7, and day 10, from which distances of migration of cells out of the tumor were determined over time using ImageJ software. […]

SMILES: CNC(=O)c1cc(Oc2ccc(NC(=O)Nc3ccc(Cl)c(C(F)(F)F)c3)c(F)c2)ccn1 [regorafenib]
- drug sensitivity (mitochondrial metabolism by MTS) [1]: slight sensitivity

SMILES: O=c1[nH]cc(F)c(=O)[nH]1 [5-FU]
- drug sensitivity (mitochondrial metabolism by MTS) [2]: particularly sensitive
- drug sensitivity (mitochondrial metabolism by MTS) [3]: particularly sensitive
- drug sensitivity (mitochondrial metabolism by MTS) [4]: particularly sensitive

SMILES: CNC(=O)C(NC(=O)C(CC(C)C)C(O)C(=O)NO)C(C)(C)C (stereo not shown) [Marimastat, N-[2,2-dimethyl-1-(methylcarbamoyl)propyl]-2-[hydroxy-(hydroxycarbamoyl)methyl]-4-methyl-pentanamide]
- migration distance of HCT-116 cells out of the tumor ([5]; day 3, day 7 and day 10, length in pixel counts, p<0.05): significantly prevented migration
- tumor cell invasion / outward growth of HCT-116 aggregates into the surrounding 3-D environment ([5]; overlay images, day 10): reduce tumor cell invasion; also recorded: prevents outward growth of aggregates

SMILES: CNC(=O)c1cc(Oc2ccc(NC(=O)Nc3ccc(Cl)c(C(F)(F)F)c3)cc2)ccn1 [sorafenib]
- drug sensitivity (mitochondrial metabolism by MTS) [2]: particularly sensitive
